What all share (assay): inhibition of tumour cell growth, NCI panel, 48 h
Test [1] relates to SF-295 CNS.
The test system of test [2] is HCC-2998 colon.
The test system of test [3] is KM12 colon.
Test [4] deals with SNB-75 CNS.
Test [5] concerns SNB-19 CNS.
Test [6] concerns ACHN renal.
Test [7] relates to SK-OV-3 ovarian.
Test [8] concerns NCI-H23 lung.
Test [9] relates to U251 CNS.
The test system of test [10] is MALME-3M melanoma.

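A five-concentration, 48-hour dose response in 96-well plates underlies each endpoint, interpolated linearly between surrounding concentrations. At the GI50, growth is halved. TGI: total growth inhibition.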

Take `COC1=CC23C=CC1[C@@H](c1ccccc1)C2=C(C)C(=O)N3C(=O)NC1CCCCC1` (stereo partly drawn): the TGI is 53.7 µM in test [1]; 52 µM in test [2]; above 100 µM in [3]; above 100 µM in [4]; above 100 µM in test [5]; above 100 µM in test [6]. For the same compound, the TGI in test [7] was 93.5 µM; in [8], 57.5 µM; in test [9] it was 35.4 µM.

`CC1(C)C(=O)N(c2ccccc2)C(=O)N1c1nc2ccccc2[nH]1`: the TGI in test [1], in test [2], in test [3], in test [4], in [5] and in test [6] was above 100 µM in each case. The TGI in test [7], in [10] and in test [8] was above 100 µM each time.

Take `COc1ccc2c(c1)sc1nc(-c3ccccc3)c(-c3ccsc3)n12`: the GI50 in test [1] was 3.06 µM; in test [2], 4.86 µM; in [3], 3.7 µM; in test [5], 6.9 µM; in [6], 6.76 µM; in test [7] it was 3.48 µM. The GI50 in test [10] was above 100 µM; in test [8], 4 µM; in [9] it was 3.72 µM. Also, the TGI in test [1] was above 100 µM; in test [2], 93.1 µM; in test [3] it was above 100 µM; in [5], above 100 µM; in test [6], above 100 µM; in test [7] it was 64.6 µM. The TGI in test [10], in [8] and in test [9] was above 100 µM in each case.

Regarding `CC1=C2C(O)C(C(C)CO)C(O)CC2(C)C(O)CC1` (stereo not drawn), the TGI in [1], in test [2], in test [3], in [4], in test [5] and in test [6] was above 100 µM throughout. The TGI in [7], in test [10] and in test [9] was above 100 µM each time.

With `S=C(Nc1ccc(-c2nc3ccccc3[nH]2)cc1)NC1CCCCC1`, the GI50 in test [1] was 7.06 µM; in test [2], 16.4 µM; in test [3], 22.5 µM; in test [4] it was 25.1 µM; in test [5], 46.6 µM; in [6] it was 18.1 µM. Besides, the GI50 in test [8] is 23.2 µM; in test [9], 19.7 µM. Further, the TGI was 30.3 µM in test [1]; 32.4 µM in test [2]; 63.6 µM in [3]; above 100 µM in [4]; 42.2 µM in [6]; 51.9 µM in test [10]. In addition, the TGI in [8] was 68.3 µM; in test [9] it was 45.2 µM.

In the case of `Nc1nc(-c2cccc([N+](=O)[O-])c2)c(Br)c(=O)[nH]1`, the TGI in test [1] is above 66.6 µM; in test [2], above 100 µM; in test [3], above 100 µM; in test [4], above 100 µM; in test [5], above 73 µM; in test [6] it was above 100 µM. The TGI in test [7], in test [8] and in test [9] was above 100 µM in each case.

As to `O=c1cc(-c2ccccc2)[nH]c2cccc(S)c12`, the TGI was 0.389 µM in test [1]; 4 µM in [2]; above 100 µM in [3]; above 100 µM in test [5]; above 100 µM in [6]; 26.1 µM in test [7]. Further, the figures for the TGI in test [10], in test [8] and in test [9] were above 100 µM, above 100 µM and 11.4 µM, respectively.

`CCN(CC)CCCCC1CCN(CC(=O)N2CC(C)C(=O)Nc3ccccc32)CC1` (stereo not drawn): the TGI in test [1], in test [2], in test [5], in test [6], in [7] and in [10] was above 100 µM each time. The TGI in test [8] and in [9] was above 100 µM each time.

`CC(=O)NC1=N/C(=C/c2cc([N+](=O)[O-])ccc2O)CN1C`: the TGI in test [1], in test [2], in test [3], in test [4], in test [5] and in test [6] was above 100 µM throughout. For the same compound, the TGI in test [7], in [8] and in test [9] was above 100 µM each time.

With `CCOc1ccccc1NC(=O)/C=C1\NC(=O)CS1`, the TGI is above 100 µM in [1]; above 100 µM in [2]; above 100 µM in test [3]; 98.7 µM in test [4]; above 100 µM in test [5]; above 100 µM in test [7]. Further, the TGI in [10], in test [8] and in [9] was above 100 µM throughout.

In the case of `COc1cc([C@H](C)c2ccc3ccccc3c2)cc(OC)c1OC`, the GI50 in [1] was 0.201 µM; in test [2], 1.24 µM; in test [3], 0.276 µM; in test [5] it was 0.601 µM; in test [6] it was 0.857 µM; in [7], 0.594 µM. In addition, the GI50 was 1.36 µM in [10], 0.696 µM in [8] and 0.333 µM in test [9]. Besides, the TGI in test [1] is above 100 µM; in [2], above 100 µM; in test [3] it was above 100 µM; in test [5], above 100 µM; in test [6] it was above 100 µM; in test [7] it was 61.6 µM. Moreover, the TGI in test [10] is above 100 µM; in [8] it was above 100 µM; in test [9], 21.1 µM.

In the case of `N#CCCc1nc2ccc(Br)cc2c(=O)n1CCO`, the TGI in test [1], in test [2], in test [3], in test [4], in [7] and in test [10] was above 100 µM each time. Besides, the TGI in test [8] is above 100 µM.

On to `C=CCc1cc2cccc(OC)c2oc1=O`, for which the TGI in test [1], in test [2], in test [3], in [4], in test [5] and in test [6] was above 100 µM each time. Further, the TGI in test [10], in [8] and in test [9] was above 100 µM each time.

With `COc1ccc(/C=C/c2cc(OC)c(OC)c(OC)c2)cc1NC(=O)/C=C/c1ccc(F)cc1`, the GI50 is 1.57 µM in test [1]; 1.94 µM in test [2]; 2.96 µM in [3]; 4.37 µM in test [5]; 6.3 µM in [6]; 0.0441 µM in test [7]. Also, the GI50 was 3.87 µM in [10], 3.41 µM in test [8] and 3.17 µM in test [9]. The TGI in [1] is 64.4 µM; in [2], above 28.2 µM; in test [3], above 100 µM; in [5] it was above 100 µM; in [6], above 100 µM; in test [7], 0.782 µM. Besides, the TGI in test [10], in test [8] and in test [9] was above 100 µM in each case.

With `O=[N+]([O-])c1c(/C=N/Nc2ccccc2)oc(-c2ccc3c(c2)OCO3)c1-c1ccc2c(c1)OCO2`, the TGI is above 100 µM in [1]; 34.3 µM in test [2]; above 100 µM in [4]; above 100 µM in [5]; above 100 µM in test [6]; above 100 µM in [7]. The TGI in [10] and in [8] was above 100 µM throughout.

Consider `CCN(CC)c1ccc(N=Nc2ccc(-c3nc4cccnc4o3)cc2)cc1`, for which the TGI in test [1], in [2], in test [3], in [4], in test [5] and in [6] was above 100 µM each time. Besides, the TGI in test [10], in test [8] and in test [9] was above 100 µM throughout.

Turning to `Nc1ccc(C(=O)N/C(=C\C=C\c2ccco2)c2nc3[nH]c(=S)[nH]c(=O)c3[nH]2)cc1`, the TGI in test [1], in test [2], in test [3], in test [5], in test [6] and in [7] was above 100 µM each time. In addition, the TGI in test [10], in [8] and in test [9] was above 100 µM throughout.

As for `COc1cc(OC2OC(C)C(O)C(O)C2O)cc2oc(-c3ccc(O)cc3)c(CC=C(C)C)c(=O)c12` (stereo not drawn), the GI50 was 33.9 µM in test [1]; 16.6 µM in test [2]; 12.2 µM in test [3]; 1.69 µM in test [4]; 15.3 µM in test [5]; 22 µM in [6]. Also, the values for the GI50 in test [7], in test [10] and in test [8] were 20.8 µM, 15.5 µM and 18.6 µM, respectively. The TGI in test [1] was above 100 µM; in test [2] it was 40.8 µM; in test [3], 31 µM; in [4], 17.5 µM; in test [5], 39.2 µM; in test [6] it was 59.8 µM. Also, the figures for the TGI in test [7], in test [10] and in test [8] were 45.4 µM, 55.5 µM and 47.4 µM, respectively.

As for `O=C1c2cc(Br)ccc2-c2c1c1ccc([N+](=O)[O-])cc1c(=O)n2CCCCl`, the GI50 in test [1] is below 0.0479 µM; in test [2], 1.55 µM; in test [3], 0.5 µM; in test [5], below 0.01 µM; in [6], below 0.0151 µM; in test [7], 0.16 µM. The GI50 in test [10] was 0.25 µM; in test [8], 1.54 µM; in [9] it was below 0.0219 µM. Further, the TGI in test [1] is 3.56 µM; in test [2], 13 µM; in test [3], above 41.6 µM; in test [5], 7.19 µM; in [6], 6.79 µM; in [7], 16 µM. Moreover, the TGI in test [10] is 7.74 µM; in [8], 8.04 µM; in test [9], 15.6 µM.

Turning to `CCOC(=O)CCC(=O)C1c2cccc(O)c2C(=O)c2c(O)cccc21`, the TGI turned out to be 1.95 µM in test [1]; 2.31 µM in test [2]; 2.2 µM in [3]; 2.33 µM in test [4]; 3.7 µM in [5]; 2.9 µM in [6]. Also, the TGI in test [10] stood at 3.42 µM; in [8] it was 3.09 µM; in test [9] it was 1.53 µM.

Regarding `N#CC(C#N)=C(N)/C(C#N)=C\c1ccnc2ccccc12`, the TGI in [1] is 80.4 µM; in test [2], above 100 µM; in test [3], above 100 µM; in [4], 70.7 µM; in [5] it was above 100 µM; in test [6], above 100 µM. Moreover, the results for the TGI in test [10], in [8] and in test [9] were 87 µM, 40.5 µM and 43.1 µM, respectively.

With `Cc1nc2ccc(C(F)(F)F)cc2nc1Nc1ccc(Cl)c(Cl)c1`, the TGI in [1] is 11.8 µM; in [2], 13.7 µM; in test [5], 27.1 µM; in test [6], 23.4 µM; in test [7] it was 36 µM; in test [10] it was 35.7 µM. Moreover, the results for the TGI in test [8] and in test [9] were 26.4 µM and 19.4 µM, respectively.

Turning to `Oc1ccc(N=Nc2ccc(Cl)cc2)cc1`, the TGI in [1] was determined as 34.6 µM; in test [2], 29.8 µM; in [3], 28.2 µM; in [4], 46.1 µM; in test [5], 34.3 µM; in test [6], 27.7 µM. In addition, the TGI in test [7] is 47.3 µM; in test [8] it was 32.3 µM; in test [9] it was 29.7 µM.

On to `CCCCCCNC(=O)C1=C(C)NC(C)=C(C(=O)NCCCCCC)C1`, for which the TGI in test [1], in [2], in test [3], in test [4], in [5] and in test [6] was above 100 µM in each case. In addition, the TGI in test [7], in [8] and in test [9] was above 100 µM throughout.

(Values after PubChem BioAssay (NCI).)
